Results as given in ChEMBL document CHEMBL1201862, “PubChem BioAssay data set” (2004).
Several values for one entry are separate records, joined by “and”; a condition that tells them apart may be missing. Identical values can stand only once. Each block holds one molecule with its values, some of them ahead of it. Activity calls are given as the source filed them.

Legend:
[1] = biological target: Peroxisome proliferator-activated receptor gamma/Nuclear receptor corepressor 2 (Homo sapiens, UniProt P37231+Q9Y618); assay: Counterscreen for NR2E3 inverse agonists: TR-FRET-based biochemical high throughput dose response assay to identify inverse agonists of the interaction between peroxisome proliferator-activated receptor gamma (PPARg) and nuclear receptor co-repressor 2 (NCOR2).; assay type: functional
[2] = Counterscreen for antagonists of the orexin 1 receptor (OX1R; HCRTR1): Fluorescence-based cell-based high throughput dose response assay to identify antagonists of the parental CHO cell line. [Related pubchem assays (depositor defined):AID434989, AID435008, AID463079, AID485270, AID492963, AID492964, AID492965, AID493232, AID504699, AID504701]; assay type: functional
[3] = biological target: T1, Orexin/Hypocretin receptor type 1 (Homo sapiens, UniProt O43613); assay: Homogeneous Time Resolved Fluorescence (HTRF)-based cell-based high throughput dose response assay for antagonists of the orexin 1 receptor (OX1R; HCRTR1). [Related pubchem assays (depositor defined):AID434989, AID435008, AID463079, AID485270, AID492963, AID492964, AID492965, AID493232, AID504717, AID504718]; assay type: functional
T1 sequence (O43613 whole entry): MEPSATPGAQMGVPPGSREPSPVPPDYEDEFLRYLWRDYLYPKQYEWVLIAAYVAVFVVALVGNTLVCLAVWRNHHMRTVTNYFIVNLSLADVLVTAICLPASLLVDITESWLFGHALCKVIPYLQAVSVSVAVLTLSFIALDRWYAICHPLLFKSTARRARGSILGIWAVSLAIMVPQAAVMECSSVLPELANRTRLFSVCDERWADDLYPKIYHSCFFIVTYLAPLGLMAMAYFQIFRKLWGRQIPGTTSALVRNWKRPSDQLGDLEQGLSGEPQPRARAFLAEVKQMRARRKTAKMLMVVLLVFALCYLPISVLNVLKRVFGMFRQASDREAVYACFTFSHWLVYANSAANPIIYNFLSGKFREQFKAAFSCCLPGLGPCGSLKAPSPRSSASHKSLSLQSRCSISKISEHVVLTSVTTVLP

[4] = biological target: T2, Orexin receptor type 2 (Homo sapiens, UniProt O43614); assay: Counterscreen assay for antagonists of the orexin 1 receptor (OX1R; HCRTR1): Homogeneous Time Resolved Fluorescence (HTRF)-based cell-based dose response assay for antagonists of the orexin 2 receptor (OX2R; HCRTR2), run by assay provider.; assay type: functional
T2 sequence (O43614 whole entry): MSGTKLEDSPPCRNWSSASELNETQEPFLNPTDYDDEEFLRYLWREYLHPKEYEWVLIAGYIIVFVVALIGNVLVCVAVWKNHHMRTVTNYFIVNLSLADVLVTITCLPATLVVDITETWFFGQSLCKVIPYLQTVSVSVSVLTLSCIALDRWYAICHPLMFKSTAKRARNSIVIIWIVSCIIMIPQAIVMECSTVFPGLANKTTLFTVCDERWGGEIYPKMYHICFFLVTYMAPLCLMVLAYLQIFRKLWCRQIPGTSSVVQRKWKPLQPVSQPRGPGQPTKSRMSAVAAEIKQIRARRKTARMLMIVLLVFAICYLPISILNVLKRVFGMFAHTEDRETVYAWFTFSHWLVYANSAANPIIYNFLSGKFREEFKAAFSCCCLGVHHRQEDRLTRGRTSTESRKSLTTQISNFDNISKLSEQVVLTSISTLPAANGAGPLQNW

[5] = biological target: T1, Orexin/Hypocretin receptor type 1; assay: Fluorescence-based cell-based high throughput dose response assay for antagonists of the orexin 1 receptor (OX1R; HCRTR1). [Related pubchem assays (depositor defined):AID434989, AID435008, AID463079, AID485270, AID492963, AID492964, AID492965, AID493232, AID504717, AID504718]; assay type: functional
[6] = biological target: T2, Orexin receptor type 2; assay: Counterscreen assay for antagonists of the orexin 1 receptor (OX1R; HCRTR1): Fluorescence-based cell-based dose response assay for antagonists of the orexin 2 receptor (OX2R; HCRTR2), run by assay provider.; assay type: functional
[7] = biological target: Photoreceptor-specific nuclear receptor (Homo sapiens, UniProt Q9Y5X4); assay: NR2E3 inverse agonists, dose response, biochemical, TR-FRET (AID 463256); assay type: functional
Sequence of Photoreceptor-specific nuclear receptor (Q9Y5X4 whole entry): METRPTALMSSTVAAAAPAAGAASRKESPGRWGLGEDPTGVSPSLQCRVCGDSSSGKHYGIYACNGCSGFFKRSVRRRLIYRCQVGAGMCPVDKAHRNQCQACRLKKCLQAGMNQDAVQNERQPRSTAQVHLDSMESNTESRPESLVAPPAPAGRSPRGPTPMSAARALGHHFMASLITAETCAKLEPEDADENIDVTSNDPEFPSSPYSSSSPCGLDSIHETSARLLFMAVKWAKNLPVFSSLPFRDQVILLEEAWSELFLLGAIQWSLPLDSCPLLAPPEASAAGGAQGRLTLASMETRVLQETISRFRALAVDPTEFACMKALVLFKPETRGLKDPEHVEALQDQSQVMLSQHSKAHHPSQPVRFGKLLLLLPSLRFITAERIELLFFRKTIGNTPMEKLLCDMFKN

[8] = test system: CHO-K1; assay: Counterscreen for antagonists of the orexin 1 receptor (OX1R; HCRTR1): Homogeneous time resolved fluorescence (HTRF)-based cell-based dose response assay to identify antagonists of the parental CHO-K1 cell line. [Related pubchem assays (depositor defined):AID434989, AID435008, AID463079, AID485270, AID492963, AID492964, AID492965, AID493232, AID504699, AID504701]; assay type: functional; settings: Cricetulus griseus;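 also: potency for inhibition of ATP-stimulated IP1 production as antagonists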
[9] = biological target: Latent membrane protein 1 (Human herpesvirus 4 (strain B95-8), UniProt P03230); assay: TES1-eGFP NF-kB reporter inhibition versus Tet-On dsRED, dose response, selectivity assay for LMP1 NF-kB inhibitor project, imaging, HEK293T, dual-color eGFP/dsRED, cherry-picks (AID 588398); assay type: functional, cell-based
Sequence of Latent membrane protein 1 (P03230 whole entry): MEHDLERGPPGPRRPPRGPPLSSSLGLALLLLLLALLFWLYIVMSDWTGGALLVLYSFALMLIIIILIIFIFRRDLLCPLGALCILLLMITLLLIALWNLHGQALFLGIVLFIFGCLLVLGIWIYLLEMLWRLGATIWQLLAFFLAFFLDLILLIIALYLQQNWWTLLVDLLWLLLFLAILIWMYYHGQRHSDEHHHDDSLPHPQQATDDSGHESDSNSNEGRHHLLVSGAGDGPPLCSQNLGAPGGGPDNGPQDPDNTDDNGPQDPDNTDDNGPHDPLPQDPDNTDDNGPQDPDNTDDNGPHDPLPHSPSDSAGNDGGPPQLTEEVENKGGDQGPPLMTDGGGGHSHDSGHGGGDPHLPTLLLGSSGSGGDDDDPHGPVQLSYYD

[10] = biological target: T3, Cyclin-dependent kinase 5/CDK5 activator 1 (Homo sapiens, UniProt Q00535); assay: CDK5-p25 kinase inhibitors, specificity check, dose response, selectivity assay for GSK-3 alpha inhibitor project, biochemical, microfluidic mobility shift, dry powder (AID 588430)
T3 sequence (Q00535 whole entry): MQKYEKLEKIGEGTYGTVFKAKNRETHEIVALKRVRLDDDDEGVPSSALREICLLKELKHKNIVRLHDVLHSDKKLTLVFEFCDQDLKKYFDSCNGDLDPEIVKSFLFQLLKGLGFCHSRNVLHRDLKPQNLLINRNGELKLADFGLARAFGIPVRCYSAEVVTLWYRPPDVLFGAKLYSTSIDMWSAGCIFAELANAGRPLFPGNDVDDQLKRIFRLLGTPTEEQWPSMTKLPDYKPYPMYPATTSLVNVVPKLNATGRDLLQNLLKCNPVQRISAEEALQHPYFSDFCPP
T3 sequence (Q15078 whole entry, further chain): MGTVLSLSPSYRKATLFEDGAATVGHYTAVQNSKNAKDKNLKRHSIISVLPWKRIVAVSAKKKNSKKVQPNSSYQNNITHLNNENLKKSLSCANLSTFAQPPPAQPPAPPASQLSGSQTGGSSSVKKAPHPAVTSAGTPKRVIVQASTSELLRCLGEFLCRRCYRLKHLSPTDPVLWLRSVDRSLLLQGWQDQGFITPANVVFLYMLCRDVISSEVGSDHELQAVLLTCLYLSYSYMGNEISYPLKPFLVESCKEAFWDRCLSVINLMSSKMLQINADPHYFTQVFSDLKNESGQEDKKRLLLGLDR

[11] = biological target: T4, Glycogen synthase kinase-3 beta (Homo sapiens, UniProt P49841); assay: GSK3beta kinase inhibitors, dose response, biochemical, microfluidics, dry powder samples, set 2 (AID 623989); assay type: functional
T4 sequence (P49841 whole entry): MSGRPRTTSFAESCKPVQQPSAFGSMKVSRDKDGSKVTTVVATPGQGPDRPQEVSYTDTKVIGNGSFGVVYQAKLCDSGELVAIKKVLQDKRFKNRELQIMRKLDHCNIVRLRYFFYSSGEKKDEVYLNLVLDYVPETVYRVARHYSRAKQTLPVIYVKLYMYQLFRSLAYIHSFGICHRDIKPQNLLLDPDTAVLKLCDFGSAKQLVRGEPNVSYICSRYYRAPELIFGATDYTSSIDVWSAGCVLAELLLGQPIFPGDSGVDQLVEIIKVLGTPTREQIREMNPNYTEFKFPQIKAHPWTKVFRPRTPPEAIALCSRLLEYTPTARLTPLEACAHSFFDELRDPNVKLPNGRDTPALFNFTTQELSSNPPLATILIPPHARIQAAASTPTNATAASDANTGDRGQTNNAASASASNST

[12] = biological target: T3, Cyclin-dependent kinase 5/CDK5 activator 1; assay: CDK5-p25 kinase inhibition, dose response, selectivity assay for GSK3beta inhibitor project, biochemical, microfluidic mobility shift, dry powder, set 2 (AID 623979); assay type: functional
[13] = biological target: T5, Glycogen synthase kinase-3 alpha (Homo sapiens, UniProt P49840); assay: Inhibition of Human GSK-3 alpha Activity Measured in Biochemical System Using Microfluidics - 2063-06_Inhibitor_Dose_DryPowder_Activity_Set2. [Related pubchem assays (depositor defined):AID2709]
T5 sequence (P49840 whole entry): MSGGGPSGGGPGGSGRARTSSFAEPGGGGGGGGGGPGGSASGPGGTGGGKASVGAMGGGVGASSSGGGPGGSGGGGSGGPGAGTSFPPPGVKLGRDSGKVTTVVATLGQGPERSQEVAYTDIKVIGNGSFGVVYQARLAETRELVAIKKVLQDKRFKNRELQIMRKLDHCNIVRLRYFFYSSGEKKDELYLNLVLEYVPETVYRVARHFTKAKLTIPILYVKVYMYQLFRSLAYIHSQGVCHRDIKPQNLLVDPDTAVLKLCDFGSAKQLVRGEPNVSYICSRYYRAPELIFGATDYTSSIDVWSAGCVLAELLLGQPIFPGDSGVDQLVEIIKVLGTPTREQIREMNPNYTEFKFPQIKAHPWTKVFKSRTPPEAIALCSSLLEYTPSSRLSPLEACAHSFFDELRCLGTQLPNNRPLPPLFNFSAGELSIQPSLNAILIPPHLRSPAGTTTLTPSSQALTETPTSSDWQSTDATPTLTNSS

[14] = biological target: T4, Glycogen synthase kinase-3 beta; assay: Inhibition of Human GSK-3 beta Activity Measured in Biochemical System Using Microfluidics - 2063-05_Inhibitor_Dose_DryPowder_Activity_Set2. [Related pubchem assays (depositor defined):AID2709]
[15] = biological target: T5, Glycogen synthase kinase-3 alpha; assay: human GSK3 alpha kinase inhibition, dose response, selectivity assay for GSK3beta inhibitor project, biochemical, microfluidics, dry powder samples, set 2 (AID 623978); assay type: functional
[16] = test system: INS1; assay: Primary beta islet insulin ELISA Measured in Cell-Based System Using Plate Reader - 2061-09_Inhibitor_Dose_DryPowder_Activity. [Related pubchem assays (depositor defined):AID435007]; assay type: functional; settings: Rattus norvegicus
[17] = test system: INS1; assay: Glucose-induced Insulin secretion ELISA Measured in Cell-Based System Using Plate Reader - 2061-05_Inhibitor_Dose_DryPowder_Activity. [Related pubchem assays (depositor defined):AID435007]; assay type: functional; settings: Rattus norvegicus
[18] = Primary Beta Cell Apoptosis assay Measured in Cell-Based System Using Plate Reader - 2061-07_Inhibitor_Dose_DryPowder_Activity_Set2. [Related pubchem assays (depositor defined):AID435007]; assay type: functional; settings: Homo sapiens
[19] = test system: INS1; assay: caspase-3/7 inhibition in cytokine-treated INS-1E, dose response, beta-cell apoptosis inhibitor project, cell-based, caspase luminescence, dry powder (AID 488848); assay type: functional; settings: Rattus norvegicus
[20] = test system: INS1; assay: protection from cytokine-induced mitochondrial depolarization, dose response, cell-based, INS-1E, JC-1 fluorescence ratio, dry powder (AID 488931); assay type: functional; settings: Rattus norvegicus
[21] = inhibitors of cytokine-induced nitrite release, dose response, cell-based, Griess absorbance, INS-1E, dry powder, set 3 (AID 488870); assay type: functional, Rattus norvegicus
[22] = biological target: T6, High affinity choline transporter 1 (Homo sapiens, UniProt Q9GZV3); assay: CHT inhibitors, dose response, cell-based, 5-point CRC, membrane potential dye (AID 504840); assay type: functional
T6 sequence (Q9GZV3 whole entry): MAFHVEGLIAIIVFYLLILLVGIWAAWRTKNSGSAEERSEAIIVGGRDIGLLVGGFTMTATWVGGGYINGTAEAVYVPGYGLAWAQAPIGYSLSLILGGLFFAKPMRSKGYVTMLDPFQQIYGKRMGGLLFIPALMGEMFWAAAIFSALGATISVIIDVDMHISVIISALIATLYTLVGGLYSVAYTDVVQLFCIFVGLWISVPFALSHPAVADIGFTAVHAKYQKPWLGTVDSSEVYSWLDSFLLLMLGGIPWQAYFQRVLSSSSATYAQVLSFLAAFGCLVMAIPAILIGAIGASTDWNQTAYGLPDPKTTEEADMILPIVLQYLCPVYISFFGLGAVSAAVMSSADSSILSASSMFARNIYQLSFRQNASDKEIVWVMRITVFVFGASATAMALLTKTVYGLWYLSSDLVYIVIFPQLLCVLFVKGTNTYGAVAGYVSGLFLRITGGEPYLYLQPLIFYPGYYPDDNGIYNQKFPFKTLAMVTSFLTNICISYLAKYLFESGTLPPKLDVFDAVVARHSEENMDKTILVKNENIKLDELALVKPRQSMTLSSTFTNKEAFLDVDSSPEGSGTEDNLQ

[23] = biological target: T6, High affinity choline transporter 1; assay: CHT inhibitors, dose response, cell-based, 10-point CRC, membrane potential dye (AID 588401); assay type: functional;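 also: membrane potential dye fluorescence of choline-evoked depolarization via CHT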
[24] = biological target: T6, High affinity choline transporter 1; assay: inhibitors of CHT choline uptake, dose response, cell-based, 3H-choline uptake, CHT LV-AA trafficking mutant, CRC (AID 602208); assay type: functional
[25] = test system: HEK293; assay: inhibitors of LMP1-driven NF-kB reporter, dose response, cell-based, HEK293, luciferase, cherry-pick (AID 588343); assay type: functional; settings: Homo sapiens
[26] = biological target: Apoptotic protease-activating factor 1 (Homo sapiens, UniProt O14727); assay type: functional
[27] = biological target: Dual specificity protein kinase CLK4 (Homo sapiens, UniProt Q9HAZ1); assay type: functional
[28] = biological target: T7, Receptor-type tyrosine-protein kinase FLT3 (Homo sapiens, UniProt P36888); assay type: functional;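 also: FLT3 was tested as one member of a kinome-wide kinase panel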
T7 sequence (P36888 whole entry): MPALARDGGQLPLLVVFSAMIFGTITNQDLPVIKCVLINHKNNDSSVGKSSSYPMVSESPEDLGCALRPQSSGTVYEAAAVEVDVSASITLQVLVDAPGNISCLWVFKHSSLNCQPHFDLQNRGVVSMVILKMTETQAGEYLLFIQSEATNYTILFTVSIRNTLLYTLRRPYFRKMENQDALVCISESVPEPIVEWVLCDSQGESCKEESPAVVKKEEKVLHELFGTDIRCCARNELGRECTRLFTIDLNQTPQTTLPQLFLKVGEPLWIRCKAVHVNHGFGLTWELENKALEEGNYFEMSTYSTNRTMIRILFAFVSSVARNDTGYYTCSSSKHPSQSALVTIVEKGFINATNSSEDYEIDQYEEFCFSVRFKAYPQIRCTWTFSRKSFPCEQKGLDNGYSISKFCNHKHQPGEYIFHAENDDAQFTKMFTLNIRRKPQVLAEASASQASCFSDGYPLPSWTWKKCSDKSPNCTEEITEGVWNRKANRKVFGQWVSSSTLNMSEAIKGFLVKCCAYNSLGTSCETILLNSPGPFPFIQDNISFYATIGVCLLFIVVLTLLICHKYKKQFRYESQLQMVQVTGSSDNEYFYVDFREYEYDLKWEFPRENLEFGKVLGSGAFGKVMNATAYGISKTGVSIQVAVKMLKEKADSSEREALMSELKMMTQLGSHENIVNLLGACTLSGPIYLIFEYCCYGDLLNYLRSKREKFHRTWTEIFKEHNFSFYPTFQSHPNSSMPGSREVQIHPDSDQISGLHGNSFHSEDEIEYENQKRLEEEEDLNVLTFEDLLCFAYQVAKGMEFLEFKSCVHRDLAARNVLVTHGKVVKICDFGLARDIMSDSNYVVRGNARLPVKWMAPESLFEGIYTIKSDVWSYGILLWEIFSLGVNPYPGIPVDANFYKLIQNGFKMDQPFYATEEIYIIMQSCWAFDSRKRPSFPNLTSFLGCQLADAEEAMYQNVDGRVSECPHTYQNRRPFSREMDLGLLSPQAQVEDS

[29] = biological target: Aurora kinase B (Homo sapiens, UniProt Q96GD4); assay type: functional
[30] = biological target: Mitogen-activated protein kinase kinase kinase 20 (Homo sapiens, UniProt Q9NYL2); assay type: functional
[31] = biological target: Mitogen-activated protein kinase kinase kinase kinase 4 (Homo sapiens, UniProt O95819); assay type: functional
Sequence of Mitogen-activated protein kinase kinase kinase kinase 4 (O95819 whole entry, canonical isoform): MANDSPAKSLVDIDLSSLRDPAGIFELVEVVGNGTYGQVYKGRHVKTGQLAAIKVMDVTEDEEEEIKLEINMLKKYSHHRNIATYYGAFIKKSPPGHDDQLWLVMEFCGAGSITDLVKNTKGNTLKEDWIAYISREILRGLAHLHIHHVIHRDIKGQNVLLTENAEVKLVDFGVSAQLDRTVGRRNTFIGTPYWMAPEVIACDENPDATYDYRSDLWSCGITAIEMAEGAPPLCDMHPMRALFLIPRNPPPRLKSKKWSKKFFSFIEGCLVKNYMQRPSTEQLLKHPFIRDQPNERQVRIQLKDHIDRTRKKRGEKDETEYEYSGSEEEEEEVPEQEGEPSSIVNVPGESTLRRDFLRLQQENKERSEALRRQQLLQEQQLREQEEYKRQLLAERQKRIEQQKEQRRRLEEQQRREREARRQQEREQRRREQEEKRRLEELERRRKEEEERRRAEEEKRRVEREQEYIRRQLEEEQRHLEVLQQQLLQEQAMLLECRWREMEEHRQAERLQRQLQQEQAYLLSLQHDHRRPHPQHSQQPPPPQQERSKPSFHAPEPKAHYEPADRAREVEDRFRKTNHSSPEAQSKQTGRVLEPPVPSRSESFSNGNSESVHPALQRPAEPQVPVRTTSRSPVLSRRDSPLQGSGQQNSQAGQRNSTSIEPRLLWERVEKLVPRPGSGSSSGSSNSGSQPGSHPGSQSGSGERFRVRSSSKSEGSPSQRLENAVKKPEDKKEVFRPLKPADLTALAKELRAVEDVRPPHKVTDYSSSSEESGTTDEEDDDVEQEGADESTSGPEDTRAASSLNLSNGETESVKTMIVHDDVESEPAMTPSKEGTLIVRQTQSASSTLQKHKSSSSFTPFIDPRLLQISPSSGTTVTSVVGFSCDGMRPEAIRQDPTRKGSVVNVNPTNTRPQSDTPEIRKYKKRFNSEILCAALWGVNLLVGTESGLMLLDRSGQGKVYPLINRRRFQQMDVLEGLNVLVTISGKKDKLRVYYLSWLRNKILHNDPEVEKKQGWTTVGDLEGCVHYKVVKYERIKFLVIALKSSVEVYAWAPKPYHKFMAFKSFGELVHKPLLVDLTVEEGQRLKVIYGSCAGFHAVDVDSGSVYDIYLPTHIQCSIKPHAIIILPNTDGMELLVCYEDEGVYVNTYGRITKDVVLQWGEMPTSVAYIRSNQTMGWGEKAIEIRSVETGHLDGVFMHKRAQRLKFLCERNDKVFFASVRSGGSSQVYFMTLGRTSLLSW

[32] = biological target: Casein kinase I isoform delta (Homo sapiens, UniProt P48730); assay type: functional;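 also: measured as one member (CSNK1D) of a kinome panel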
[33] = biological target: Mitogen-activated protein kinase kinase kinase kinase 5 (Homo sapiens, UniProt Q9Y4K4); assay type: functional;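 also: measured as one member of a kinome-spanning kinase panel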
[34] = biological target: T8, Beta-2 adrenergic receptor (Homo sapiens, UniProt P07550); assay: beta2AR agonists driving receptor internalization, dose response, cell-based, FAP fluorogen, flow cytometry, cherry pick 1 (AID 588763); assay type: functional
T8 sequence (P07550 whole entry): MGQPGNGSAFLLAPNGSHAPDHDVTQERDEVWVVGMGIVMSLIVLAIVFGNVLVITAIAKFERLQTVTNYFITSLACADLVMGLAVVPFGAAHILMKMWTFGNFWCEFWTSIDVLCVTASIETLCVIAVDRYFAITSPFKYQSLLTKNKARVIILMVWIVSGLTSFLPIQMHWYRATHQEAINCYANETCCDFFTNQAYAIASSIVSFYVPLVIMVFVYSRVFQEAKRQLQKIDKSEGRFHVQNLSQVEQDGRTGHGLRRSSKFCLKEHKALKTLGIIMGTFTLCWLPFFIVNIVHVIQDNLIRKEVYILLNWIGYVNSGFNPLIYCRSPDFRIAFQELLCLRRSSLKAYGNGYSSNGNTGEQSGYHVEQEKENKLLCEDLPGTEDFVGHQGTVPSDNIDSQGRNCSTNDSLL

[35] = biological target: T8, Beta-2 adrenergic receptor; assay: Dose response for HTS for Beta-2AR agonists via FAP method from Powderset1.; assay type: functional

SMILES: O=C(CSc1ccc(-c2cccs2)nn1)c1cccs1
IC50 [1]: 9.5 µM (active) | IC50 [2]: > 49.8 µM (inactive) | IC50 [3]: 2.28 µM (active) | IC50 [4]: > 50 µM (inactive) | IC50 [5]: > 0.614 µM (active) | IC50 [6]: > 88.8 µM (inactive) | IC50 [7]: 8.97 µM (active) | IC50 [8]: > 66.2 µM (inactive)

SMILES: C[C@@H]1CN([C@@H](C)CO)C(=O)c2cccc(NC(=O)Nc3cccc4ccccc34)c2O[C@H]1CN(C)S(=O)(=O)c1ccc2c(c1)OCCO2
AC50 [16]: < 0.5 µM (active) | AC50 [17]: 4.79 µM (active) | AC50 [18]: 6.7 µM (active) | AC50 [19]: 2.22 µM (active) | AC50 [20]: 83.8 µM (active) | AC50 [21]: 33.7 µM (active) | AC50 ([21]; Rattus norvegicus): 57.6 µM (active)

SMILES: CCCN1CCC(Oc2cccc(C(=O)NCCc3ccccc3)c2)CC1
IC50 [22]: 10 µM (active) | IC50 [23]: 4.22 µM (active) | IC50 [24]: 3.76 µM (active)

SMILES: CCN(c1ccccc1)S(=O)(=O)c1ccc(Cl)c(NC(=O)Nc2ccc(Cl)cc2C#N)c1
AC50 [25]: 4.55 µM (active) | IC50 [26]: 8.98 µM (active)

SMILES: c1cncc(Nc2ncc(-c3ccncn3)c(-c3ccco3)n2)c1
Ki [27]: 3.16 µM (active) | Ki [28]: 1.26 µM (active) | Ki [29]: 2.51 µM (active) | Ki [30]: 5.01 µM (active) | Ki [31]: 6.31 µM (active) | Ki [32]: 2 µM (active) | Ki [33]: 3.98 µM (active)

The next lines start with the values.

AC50 [9]: 87 µM (active)
SMILES: COc1ccccc1NC(=O)Cn1nnc(-c2ccccc2NS(=O)(=O)c2ccccc2)n1

AC50 [10]: < 10 nM (active) and < 16 nM (active) | AC50 [11]: 11.3 nM (active) and < 30 nM (active) | AC50 [12]: < 0.023 µM (active) | AC50 [13]: 144 nM (active) and 206 nM (active) | AC50 [14]: 12.4 nM (active) and < 16 nM (active) | AC50 [15]: 121 nM (active) and 281 nM (active)
SMILES: O=C1Nc2ccc3ncsc3c2/C1=C/Nc1ccc(S(=O)(=O)Nc2ccccn2)cc1

EC50 [34]: 590 nM (active) and 280 nM (active) | EC50 [35]: 0.225 µM (active)
SMILES: COC(=O)c1ccc(NC(=O)COc2ccc(S(=O)(=O)N3CCCCC3)cc2)cc1
